Assay type in all cases: functional
Test [1] deals with Echinochloa crus-galli. As to the kind of experiment: Herbicidal activity against Echinochloa crus-galli (barnyard grass) assessed as killing at 800 g/10 acre measured after 3 weeks by pre-emergence/field application test.
For test [2], the system named is Pontederia vaginalis. In words: Herbicidal activity against Monochoria vaginalis assessed as killing at 800 g/10 acre measured after 3 weeks by pre-emergence/paddy application test.
For test [3], the system named is Echinochloa oryzicola. As to the kind of experiment: Herbicidal activity against Echinochloa oryzicola assessed as killing at 800 g/10 acre measured after 3 weeks by pre-emergence/paddy application test.
Test [4] has as its system Rotala indica. As to the kind of experiment: Herbicidal activity against Rotala indica assessed as killing at 800 g/10 acre measured after 3 weeks by pre-emergence/paddy application test.
In test [5] the test system is Chenopodium album. In words: Herbicidal activity against Chenopodium album assessed as killing at 400 g/10 acre measured after 3 weeks by post-emergence/foliar application test.
Test [6] relates to Digitaria ciliaris. As to the kind of experiment: Herbicidal activity against Digitaria ciliaris assessed as killing at 800 g/10 acre measured after 3 weeks by pre-emergence/field application test.
For test [7], the system named is Chenopodium album. As to the kind of experiment: Herbicidal activity against Chenopodium album assessed as killing at 800 g/10 acre measured after 3 weeks by pre-emergence/field application test.
In test [8] the test system is Schoenoplectiella juncoides. In words: Herbicidal activity against Schoenoplectiella juncoides assessed as killing at 800 g/10 acre measured after 3 weeks by pre-emergence/paddy application test.
Test [9] has as its system Digitaria ciliaris. As to the kind of experiment: Herbicidal activity against Digitaria ciliaris assessed as killing at 400 g/10 acre measured after 3 weeks by post-emergence/foliar application test.
The subject of test [10] is Stellaria media. As to the kind of experiment: Herbicidal activity against Stellaria media assessed as killing at 800 g/10 acre measured after 3 weeks by pre-emergence/field application test.
Test [11] deals with Echinochloa crus-galli. As to the kind of experiment: Herbicidal activity against Echinochloa crus-galli (barnyard grass) assessed as killing at 400 g/10 acre measured after 3 weeks by post-emergence/foliar application test.
The subject of test [12] is Pontederia vaginalis. In words: Herbicidal activity against Monochoria vaginalis assessed as killing at 100 g/10 acre measured after 3 weeks by pre-emergence/paddy application test.
Test [13] deals with Schoenoplectiella juncoides. As to the kind of experiment: Herbicidal activity against Schoenoplectiella juncoides assessed as killing at 100 g/10 acre measured after 3 weeks by pre-emergence/paddy application test.
Test [14] deals with Stellaria media. In words: Herbicidal activity against Stellaria media assessed as killing at 100 g/10 acre measured after 3 weeks by post-emergence/foliar application test.
In test [15] the test system is Echinochloa crus-galli. As to the kind of experiment: Herbicidal activity against Echinochloa crus-galli (barnyard grass) assessed as killing at 100 g/10 acre measured after 3 weeks by post-emergence/foliar application test.
The subject of test [16] is Digitaria ciliaris. In words: Herbicidal activity against Digitaria ciliaris assessed as killing at 100 g/10 acre measured after 3 weeks by pre-emergence/field application test.
Test [17] relates to Rotala indica. In words: Herbicidal activity against Rotala indica assessed as killing at 100 g/10 acre measured after 3 weeks by pre-emergence/paddy application test.
The subject of test [18] is Chenopodium album. As to the kind of experiment: Herbicidal activity against Chenopodium album assessed as killing at 100 g/10 acre measured after 3 weeks by pre-emergence/field application test.
For test [19], the system named is Stellaria media. As to the kind of experiment: Herbicidal activity against Stellaria media assessed as killing at 100 g/10 acre measured after 3 weeks by pre-emergence/field application test.
Test [20] concerns Echinochloa oryzicola. As to the kind of experiment: Herbicidal activity against Echinochloa oryzicola assessed as killing at 100 g/10 acre measured after 3 weeks by pre-emergence/paddy application test.
The test system of test [21] is Digitaria ciliaris. In words: Herbicidal activity against Digitaria ciliaris assessed as killing at 100 g/10 acre measured after 3 weeks by post-emergence/foliar application test.
For test [22], the system named is Echinochloa crus-galli. As to the kind of experiment: Herbicidal activity against Echinochloa crus-galli (barnyard grass) assessed as killing at 100 g/10 acre measured after 3 weeks by pre-emergence/field application test.
For test [23], the system named is Chenopodium album. In words: Herbicidal activity against Chenopodium album assessed as killing at 100 g/10 acre measured after 3 weeks by post-emergence/foliar application test.

This passage reports Activity results from ChEMBL document CHEMBL3045804, “Synthesis and Herbicidal Activity of 2-Benzylamino-4-methyl-6-trifluoromethyl-1, 3, 5-triazune Derivatives” (J Pestic Sci, 1998).

Consider `Cc1nc(NCCCc2ccccc2)nc(C(F)(F)F)n1`, for which the Activity was 76% in test [1]; 51% in [2]; 1% in test [3]; 51% in test [4]; 100% in test [5]; 100% in test [6]. The Activity worked out at 76% in test [7]; 1% in test [8]; 76% in [9]; 100% in test [10]; 91% in test [11].
Regarding `Cc1nc(NCCc2ccccc2)nc(C(F)(F)F)n1`, the Activity in [1] was 51%; in [2] it was 76%; in [3], 26%; in test [4], 91%; in test [5] it was 91%; in [6] it was 76%. In addition, the Activity in test [7] turned out to be 91%; in [8] it was 26%; in test [9], 0%; in test [11] it was 0%.
For `Cc1nc(NCc2ccc(Br)cc2)nc(C(F)(F)F)n1`, the Activity in test [12] came out at 91%; in [13], 76%; in test [14], 100%; in [15] it was 26%; in test [16], 91%; in [17] it was 100%. Further, the Activity is 100% in test [18]; 91% in test [19]; 51% in test [20]; 100% in test [21]; 76% in test [22]; 100% in test [23].
On to `Cc1nc(NCc2ccc(C(C)(C)C)cc2)nc(C(F)(F)F)n1`, for which the Activity in test [12] is on record as 26%; in test [13], 1%; in test [14] it was 100%; in test [15] it was 26%; in [16] it was 76%; in [17], 91%. For the same compound, the Activity is recorded as 91% in test [18]; 91% in test [19]; 26% in [20]; 0% in test [21]; 26% in test [22]; 76% in [23].
Take `Cc1nc(NCc2ccccc2Cl)nc(C(F)(F)F)n1`: the Activity in test [12] was 26%; in test [13], 1%; in [14], 76%; in test [15], 0%; in test [16], 1%; in test [17], 76%. Moreover, the Activity is given as 26% in test [18]; 76% in test [19]; 0% in test [20]; 0% in test [21]; 1% in test [22]; 26% in [23].
Consider `Cc1nc(NCc2cccc(Cl)c2)nc(C(F)(F)F)n1`, for which the Activity in [12] came to 51%; in test [13] it was 51%; in test [14], 100%; in [15], 51%; in test [16] it was 51%; in test [17], 100%. For the same compound, the Activity in [18] amounted to 76%; in test [20] it was 51%; in [21], 91%; in test [22] it was 1%; in test [23] it was 100%.
For `Cc1nc(NCc2ccc(Cl)cc2)nc(C(F)(F)F)n1`, the Activity in [12] is on record as 100%; in test [13], 76%; in [14], 100%; in [15], 26%; in test [16] it was 91%; in test [17], 91%. For the same compound, the Activity in test [18] came out at 100%; in test [19], 91%; in test [20], 76%; in test [21], 76%; in test [22], 51%; in test [23], 100%.
Take `Cc1nc(NCc2ccc(F)cc2)nc(C(F)(F)F)n1`: the Activity in [12] is reported as 91%; in [13], 51%; in test [14] it was 100%; in test [15] it was 51%; in [16], 76%; in test [17], 100%. Also, the Activity in test [18] is 91%; in [19], 100%; in test [20], 76%; in test [21], 91%; in test [22], 76%.
Turning to `COc1ccc(CNc2nc(C)nc(C(F)(F)F)n2)cc1`, the Activity is listed as 51% in test [12]; 1% in test [13]; 100% in test [14]; 26% in test [15]; 0% in [16]; 76% in test [17]. The Activity came to 76% in test [18]; 91% in test [19]; 26% in test [20]; 26% in test [21]; 76% in [22]; 100% in test [23].
Regarding `Cc1nc(NCc2ccc(C(F)(F)F)cc2)nc(C(F)(F)F)n1`, the Activity in test [12] was 76%; in [13] it was 51%; in test [14] it was 100%; in [15], 1%; in test [16], 100%; in test [17], 91%. The Activity in [18] is 91%; in test [19], 100%; in test [20] it was 51%; in test [21] it was 100%; in [22], 76%; in test [23], 100%.
As to `Cc1nc(C)nc(NCc2ccccc2)n1`, the Activity stood at 0% in [1]; 100% in test [2]; 51% in test [3]; 1% in [4]; 51% in [5]; 0% in test [6]. In addition, the Activity in [7] is 0%; in test [8] it was 0%; in test [9], 1%; in test [10], 0%; in [11] it was 1%.
On to `CCc1nc(C)nc(NCc2ccccc2)n1`, for which the Activity in [1] worked out at 0%; in [2], 51%; in [3], 76%; in [4], 51%; in test [6], 0%; in test [7] it was 51%. In addition, in test [8], the Activity came out at 1%.
As to `CCCc1nc(C)nc(NCc2ccccc2)n1`, the Activity is 0% in test [1]; 26% in test [2]; 26% in [3]; 26% in test [4]; 91% in test [5]; 0% in test [6]. In addition, the Activity in test [7] is given as 0%; in [8], 1%; in test [9], 1%; in test [10], 0%; in test [11], 1%.
In the case of `Cc1nc(NCc2ccccc2)nc(C(F)(F)F)n1`, the Activity amounted to 100% in test [1]; 100% in [2]; 76% in [3]; 91% in test [4]; 100% in test [5]; 100% in [6]. Also, the Activity in test [8] is given as 76%; in test [9], 76%; in test [10], 100%; in [11], 51%.
For `CCc1nc(NCc2ccccc2)nc(C(F)(F)F)n1`, the Activity in [1] is reported as 51%; in test [2], 100%; in [3], 91%; in test [4] it was 91%; in [5], 51%; in test [6] it was 100%. Also, the Activity in test [8] turned out to be 100%; in test [9] it was 1%; in [10], 100%; in test [11], 1%.
For `CCNc1nc(Cl)nc(NC(C)C)n1` [ATRAZINE], the Activity in test [14] is recorded as 100%; in [15], 26%; in test [21], 0%; in test [23] it was 100%.
For `CCNc1nc(Cl)nc(NCC)n1` [SIMAZINE], the Activity in test [16] turned out to be 51%; in [18] it was 91%; in test [19] it was 91%; in test [22] it was 26%.
